The text below walks through data of article PMC9917132, “Tenebrio molitor as a Simple and Cheap Preclinical Pharmacokinetic and Toxicity Model” (International Journal of Molecular Sciences, 2023).

One may read the LD50 as the dose at which mortality reaches 50%. As a reminder, the Vd is the apparent volume that relates the amount in the body to the concentration in plasma or blood.

Read-outs that look alike come from different tables or passages of the source.

One data set concerns Rats. To be noted: cited from earlier work; for LD50: reported.
A further data set deals with Mice. The note with it: cited from earlier work.
Data set [1] is described as follows: Acute toxicity (LD50) in adult T. molitor Coleoptera (TMC) after injection in the hemocoel. The class given is in vivo, Tenebrio molitor. The note with it: Tenebrio molitor, in vivo, other: injection in the hemocoel; 1 µL in 100% DMSO injected in hemocoel; mortality recorded daily for 7 days; highest dose 2000 mg/kg. As for the experimental part: (§1) The literature was carefully studied to identify the starting dose of a panel of drugs; however, when no data were available, the protocol described in Figure 1 was adopted, using 1 TMC and starting from the dose of 200 mg/kg.
(§2) The protocol depicted in Figure 2 has been adopted to determine LD50, starting from the opportune dose determined as described above. A panel of 20 drugs available on the market, including antivirals, antibiotics and the representative drugs for several pharmaceutical classes, was analyzed (Table 2).
(§3) Figure 2 Flowchart for LD50 determination. Starting from the opportune initial dose, LD50 was determined by changing the dose based on results and increasing the number of […] for final determinations. GHS cat.: Globally Harmonized System category. The numbers on the circles represent the number of deaths in exemplars.
(§4) TMC were randomly selected for toxicity assessment. TMC older than 3 days were discarded.
(§5) Acute toxicity was determined following the Organization for Economic Cooperation and Development (OECD) guidelines for acute toxicity of chemicals. All the available information on the test substance was considered to select the toxic dose of test compounds. Data were collected considering LD50 already reported for humans, rats and mice or, when possible, insects (e.g., Galleria mellonella). The initial dose, expressed in mg/kg, was calculated as the lowest LD50 reported in the literature. When no data were found in the literature, the starting dose of 200 mg/kg was used and the range-finding study was conducted with 1 TMC, by adapting OECD guidelines (Figure 1). To perform LD50 calculation study, 5 TMC were injected with the selected dose, and mortality was recorded daily for 7 days. Each experiment included 1 control group treated with DMSO. […] If 1 or less TMC died, the experiment was performed with a higher dose. If 2 or 3 TMC died, the experiment was repeated by re-testing the initial dose with 10 TMC. […] The experiment continued until a toxic dose was determined.

The test system of data set [2] is adult exemplars of T. molitor Coleoptera. Briefly: Toxicity of vehicles in adult T. molitor Coleoptera (survival, vitals monitored daily for seven days). The class given is in vivo, Tenebrio molitor. The note with it: for Survival %: groups of six TMC, seven days; for tolerability: 1 µL per TMC (lower dose). As for the experimental part:
Considering the limited volume of hemolymph, we considered injecting 1 or 2 µL of vehicles per TMC. The most common vehicles used for i.v. and i.p. studies were administered to experimental groups of six TMC and vitals were monitored daily for seven days. Results are reported in Table 1, expressed as survival %.
TMC were randomly selected for toxicity assessment. TMC older than 3 days were discarded. Compounds were solubilized in the opportune vehicle and injected on the hemocoel using a Hamilton syringe, (7001 KH, volume 1 µL, needle size 25 s, cone tip), by administering 1 µL of compound on the TMC dorsal side, between the pronotum and elytron.

A further data set has as its system dogs. The note with it: i.v., reported; cited from earlier work.
In the next data set the test system is guinea pigs. The note with it: i.v., reported; cited from earlier work.
The conditions of data set [3]: cited from earlier work; for T ½ / Vd: PK literature data.
A short description of data set [4]: Preliminary in vivo PK in TMC (hemolymph analysis by HPLC). The note with it: single dose equal to half the LD50 (62.5 or 150 mg/kg); hemolymph at 0, 1, 2, 4, 8, 24 hpt.
For data set [5] the following is noted: NADPH-generating system, 37 °C, pH 7.4. On the procedure:
To characterize their phase I metabolism, the drugs were incubated with human or rat microsomes and their main metabolites were determined by HPLC-MS analysis and compared to data already reported (Table 3).
After centrifuging the reaction mixtures, the parent drug and its metabolites were characterized by LC-UV-MS [38].
HPLC analysis was performed using an Agilent 1100 LC/MSD VL system (G1946C) (Agilent Technologies, Palo Alto, CA) comprising a vacuum solvent degassing unit, a binary high-pressure gradient pump and a 1100 series UV detector; a 1100 MSD model VL benchtop mass spectrometer was used to perform the chromatographic analysis. Chromatographic separation was obtained using a Phenomenex Kinetex C18-100 Å column (100–4.6 mm, 5 μm particle size). […] The injection volume was 20 μL and the flow rate was 0.4 mL min^−1. The orthogonal spray API-ES was installed on the Agilent 1100 series mass spectra-detection single-quadrupole instrument (Agilent Technologies, Palo Alto, CA, USA). N2 was used as a nebulizing and drying gas. The vaporization temperature, capillary voltage, fragmentor voltage, drying gas flow and pressure were set at […], respectively. […] The LC-ESI-MS measurements were performed by operating in either the positive or negative ion mode. Spectra were acquired over the scan range m/z 100–1500 using a step size of 0.1 u. […]

Details of data set [6]: method as in doi:10.1201/9780429460418. The note with it: literature data; cited from earlier work.
Details of data set [7]: method as in PMID 33649113. To be noted: oral administration; cited from earlier work.
Another data set has as its system Tenebrio molitor. Briefly: Acute toxicity (LD50) in adult T. molitor Coleoptera (TMC) after injection in the hemocoel. It counts as in vivo. The note with it: dose of 2000 mg/kg. On the procedure: as §1, §2, §3, §4, §5
Details of data set [8]: method as in doi:10.1201/9780429460418. The note with it: literature data; cited from earlier work. The source holds these as a separate data set.
Setting [9] is: in some people, depending on age and state of health.

On to `COc1ccc2c3c1O[C@H]1[C@@H](O)C=C[C@H]4[C@@H](C2)N(C)CC[C@@]341` [Codeine], for which, in the data set with Rats, the “LD50 Rats ip” value is 100 mg/kg and the “LD50 Rats iv” value is recorded as 75 mg/kg. In addition, in the data set on Mice, the “LD50 Mice ip” value is recorded as 60 mg/kg. The same compound yielded an LD50 at 7 days in data set [1] of 50 mg/kg.

On to `C[S+](C)[O-]` [DMSO], for which the figures for the Survival % in [2] (1 µL injected per TMC) and in data set [2] (2 µL injected per TMC) were 100% and 0%, respectively. Also, the tolerability entry in [2] was “well tolerated”. For the same compound, in [2] (2 µL per TMC), the lethality is listed as 100%. For the same compound, the LD50 with dogs is 2500 mg/kg; in the data set with guinea pigs, 6500 mg/kg; in the data set on Rats (i.v., rats) it was 5400 mg/kg; in the data set on Mice (i.v., mice, reported) it was 20600 mg/kg.

Turning to `COc1cc(Cc2cnc(N)nc2N)cc(OC)c1OC` [Trimethoprim], the “LD50 Rats ip” value in the data set on Rats was 500 mg/kg. Besides, in the data set on Mice, the “LD50 Mice ip” value is given as 400 mg/kg and the “LD50 Mice iv” value was 132 mg/kg. Also, the LD50 at 7 days in [1] was 300 mg/kg.

For the compound `Nc1nc2c(ncn2COCCO)c(=O)[nH]1` [Acyclovir], the “LD50 (dose reported by Tucker et al.)” value in the data set with Rats (rats) is given as “greater than 650 mg/kg”. Moreover, the “LD50 Mice ip” value in the data set with Mice is 1000 mg/kg. In data set [1], this compound showed an LD50 at 7 days greater than 2000 mg/kg.

For `O=C(N[C@H](CO)[C@H](O)c1ccc([N+](=O)[O-])cc1)C(Cl)Cl` [Chloramphenicol], the “LD50 Mice iv” value in the data set with Mice was 171 mg/kg. The LD50 at 7 days in [1] came to 300 mg/kg.

For `CN/C(=N/CCSCc1nc[nH]c1C)NC#N` [Cimetidine], in the data set with Rats, the “LD50 Rats ip” value is given as 328 mg/kg and the “LD50 Rats iv” value is 326 mg/kg. In the data set on Mice, the “LD50 Mice ip” value is reported as 306 mg/kg and the “LD50 Mice iv” value is reported as 150 mg/kg. Moreover, the LD50 at 7 days in [1] is 750 mg/kg.

Turning to `CC(C(=O)O)c1cccc(C(=O)c2ccccc2)c1` (stereo not shown) [Ketoprofen], in the data set on Rats, the “LD50 Rats ip” value is given as 80 mg/kg and the “LD50 Rats iv” value was 350 mg/kg. The “LD50 Mice ip” value in the data set with Mice was 300 mg/kg.

As for `CC1(C)S[C@@H]2[C@H](NC(=O)[C@H](N)c3ccc(O)cc3)C(=O)N2[C@H]1C(=O)O` [Amoxicillin], in the data set with Rats, the “LD50 Rats ip” value is given as 2870 mg/kg. This compound registered an LD50 at 7 days in data set [1] of 750 mg/kg.

`NC(=O)N1c2ccccc2C=Cc2ccccc21` [Carbamazepine]: in the data set on Rats, the “LD50 Rats ip” value is given as 158 mg/kg. Moreover, in [3], the “T ½” value is 5 h and the Vd was 0.8 to 1.9 L/kg. Further, the “LD50 Mice ip” value in the data set with Mice is given as 114 mg/kg. In data set [4], the “elimination / metabolism of parent drug in TMC hemolymph” value is given as “decreased after 4h”. Further, in data set [5] (human liver microsomes 0.2 mg/mL, 60 min), the “Stability % Human Microsomes” value turned out to be 77.54%. In addition, in data set [6], the “Protein Binding” value is 70–80%. This compound came in with a median lethal dose (LD50) at 7 days in data set [1] of 125 mg/kg.

For the compound `CC(C)C(=O)OC[C@H]1O[C@@H](n2ccc(NO)nc2=O)[C@H](O)[C@@H]1O` [Molnupiravir], in data set [7], the LD50 was greater than 800 mg/kg. Further, the “toxicity at the highest dose” value in the data set with Tenebrio molitor is reported as “absence of toxicity”. Besides, in [1], the LD50 at 7 days was greater than 2000 mg/kg.

With `O=C(O)c1ccccc1O` [Salicylic acid], the “LD50 Mice ip” value in the data set on Mice is reported as 300 mg/kg.

As to `CCO` [EtOH], the Survival % in [2] (1 µL injected per TMC) was 100%; in [2] (2 µL injected per TMC) it was 50%. Also, in [2], the tolerability entry is “well tolerated”. For the same compound, the LD50 in the data set with Rats (rats, route not given) was 1400 mg/kg.

As to `COCCc1ccc(OCC(O)CNC(C)C)cc1` (stereo not shown) [Metoprolol], the “LD50 Rats iv” value in the data set with Rats was 71.9 mg/kg. Besides, in the data set with Mice, the “LD50 Mice ip” value was greater than 200 mg/kg and the “LD50 Mice iv” value is given as 62 mg/kg. The same compound came in with an LD50 at 7 days in [1] of 500 mg/kg.

Turning to `Nc1ccc(S(=O)(=O)Nc2ncccn2)cc1` [Sulfadiazine], in the data set on Rats, the “LD50 Rats ip” value is 446 mg/kg and the “LD50 Rats iv” value was 880 mg/kg. For the same compound, in the data set on Mice, the “LD50 Mice ip” value is recorded as 750 mg/kg and the “LD50 Mice iv” value is 180 mg/kg. Also, the LD50 at 7 days in data set [1] came to 300 mg/kg.

For the compound `CC(C)=O` [Acetone], the values for the Survival % in data set [2] (1 µL injected per TMC) and in data set [2] (2 µL injected per TMC) were 100% and 16.6%, respectively. In data set [2], the tolerability result was “well tolerated”.

On to `CC(=O)Nc1ccc(O)cc1` [Paracetamol], for which, in the data set with Mice, the “LD50 Mice ip” value is 340 mg/kg. Besides, in data set [1], the LD50 at 7 days was 125 mg/kg.

Consider `Cc1onc(-c2ccccc2Cl)c1C(=O)N[C@@H]1C(=O)N2[C@@H]1SC(C)(C)[C@@H]2C(=O)O` [Cloxacillin], for which, in the data set on Rats, the “LD50 Rats iv” value is 1660 mg/kg. The compound further showed an LD50 at 7 days in [1] of 750 mg/kg.

For `Cc1cccc(C)c1NC(=O)C1CCCCN1C` (stereo not shown) [Mepivacaine], the “LD50 Rats iv” value with Rats is 30 mg/kg. In the data set on Mice, the “LD50 Mice ip” value is on record as 135 mg/kg and the “LD50 Mice iv” value is recorded as 35 mg/kg. In data set [1], this compound came in with an LD50 at 7 days of 125 mg/kg.

Turning to `CN(C)CCCN1c2ccccc2Sc2ccc(Cl)cc21` [Chlorpromazine], in [8], the LogS is reported as −5.01. Besides, the “LD50 Rats ip” value in the data set on Rats is 137 mg/kg. For the same compound, in data set [3], the “T ½” value was 8 to 35 h and the Vd is 7 to 20 L/kg. In [3] (setting [9]), the “t ½ (prolonged)” value is on record as 60 h and the “t ½ (reduced)” value was 2 h. For the same compound, in the data set on Mice, the “LD50 Mice ip” value is on record as 14 mg/kg and the “LD50 Mice iv” value is reported as 106 mg/kg. The “elimination / metabolism of parent drug in TMC hemolymph” value in data set [4] is on record as “extensively metabolized”. Moreover, in [5] (rat liver microsomes 0.2 mg/mL, 30 min), the “Stability % Rats Microsomes” value worked out at 77.99%. For the same compound, the “Protein Binding” value in data set [6] is given as 95–98%. The LD50 at 7 days in data set [1] was found to be 300 mg/kg.
